Assay results published in patent publication US9073926B2, “Heterocyclic compounds containing a pyrrolopyridine or benzimidazole core” (Boehringer Ingelheim International GmbH, priority 2009, dated 2015).

These compounds were tested against Human RSK2 (Homo sapiens (Human), UniProt P51812) (assay: Human RSK2 Assay (Kinase Glo Plus, residual ATP)). Details: 0.75 nM His-RSK2, 0.75 μM ATP, 1.0 μM S6 Kinase/RSK Substrate Peptide 1.
Format: biochemical
Method: Experimental Method A: Human RSK2 Assay
Compounds are assessed for their ability to inhibit the phosphorylation of a substrate peptide by RSK2.
Human RSK2 protein, purchased from Invitrogen, is used to measure kinase activity utilizing Kinase Glo Plus (Promega) a homogeneous assay technology, which uses a luciferin-luciferase based ATP detection reagent to quantify residual ATP. The assay is performed using 0.75 nM His-RSK2, 0.75 μM ATP and 1.0 μM S6 Kinase/RSK Substrate Peptide 1 (Upstate, catalog #12-124), in assay buffer consisting of 25 mM HEPES, pH 7.5, 10 mM MgCl2, 5 mM MnCl2, 50 mM KCl, 0.2% BSA, 0.01% CHAPS, 100 μM Na3VO4, 0.5 mM DTT, and 1% DMSO. Solutions of test compounds at various concentrations are prepared by 1:3 fold serial dilution of a 1 mM solution of compound in DMSO. The DMSO solutions are further diluted with assay buffer to a final concentration of DMSO of 5%.
The assay is performed in a 384 well, white, non-binding plate (Corning, catalogue #3574). Solutions of test compounds (10 μL) are transferred to a dry assay plate, followed by addition of 20 μL kinase and 20 μL ATP+Substrate Peptide 1 described above. The kinase reaction mixture is incubated for 90 minutes at 28° C. followed by addition of 30 μL of ATP detection reagent for 15 minutes at room temperature. The relative light unit (RLU) signal is measured on a LJL Analyst (Molecular Devices) in luminescence mode using 384 aperture. The RLU signals were converted to percent of control (POC) values using the formula: POC=100*(BCTRL−Signal)/(BCTRL−PCTRL), where Signal is the test well RLU signal, BCTRL is the average of background (negative control), which consists of ATP+peptide and compound buffer, well signals on the plate, and PCTRL is the average of positive control, which consists of kinase, ATP+peptide, and compound buffer, well signals on the plate. For concentration-responsive compounds, POC as a function of test compound concentration are fitted to a 4-parameter logistic equation of the form: Y=A+(B−A)/[1+(x/C)^D], where A, B, C, and D are fitted parameters (parameter B is fixed at zero POC), and x and y are the independent and dependent variables, respectively. The IC50 (50% inhibitory concentration) is determined as the inflection point parameter, C. Experimental Method B: Human RSK2 Trans-Reporter Assay

Sequence of Human RSK2 (P51812 whole entry): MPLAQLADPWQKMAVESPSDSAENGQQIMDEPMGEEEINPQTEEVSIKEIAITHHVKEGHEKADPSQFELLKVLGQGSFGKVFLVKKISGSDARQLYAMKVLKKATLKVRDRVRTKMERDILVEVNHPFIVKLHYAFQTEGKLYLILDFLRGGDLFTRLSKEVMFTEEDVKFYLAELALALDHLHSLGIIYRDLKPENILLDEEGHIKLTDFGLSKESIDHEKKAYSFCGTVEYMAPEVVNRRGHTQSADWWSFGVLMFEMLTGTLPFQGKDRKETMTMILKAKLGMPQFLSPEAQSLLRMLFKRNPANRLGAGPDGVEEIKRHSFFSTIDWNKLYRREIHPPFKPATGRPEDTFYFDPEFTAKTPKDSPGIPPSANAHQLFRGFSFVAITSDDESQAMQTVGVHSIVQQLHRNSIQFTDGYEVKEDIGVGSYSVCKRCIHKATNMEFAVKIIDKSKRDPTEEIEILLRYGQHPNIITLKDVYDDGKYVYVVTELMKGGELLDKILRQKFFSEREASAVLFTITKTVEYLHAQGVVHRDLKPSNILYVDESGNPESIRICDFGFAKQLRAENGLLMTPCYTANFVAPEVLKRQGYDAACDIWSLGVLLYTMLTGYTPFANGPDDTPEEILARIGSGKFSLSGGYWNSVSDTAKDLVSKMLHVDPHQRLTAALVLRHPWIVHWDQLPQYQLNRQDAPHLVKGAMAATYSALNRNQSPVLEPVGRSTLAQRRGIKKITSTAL

SMILES | IC50
Cc1cc(NC(=O)c2ccc3cc4n(c3n2)[C@H](C)CNC4=O)no1 [Example 84, (9R)-9-methyl-N-(5-methyl-1,2-oxazol-3-yl)-6-oxo-6,7,8,9-tetrahydropyrido[3′,2′:4,5]pyrrolo[1,2-a]pyrazine-2-carboxamide] | 6.6 nM
O=C(Nc1cc(-c2ccccc2)no1)c1ccc2cc3n(c2n1)CCCNC3=O [Example 81, 6-oxo-N-(3-phenyl-1,2-oxazol-5-yl)-7,8,9,10-tetrahydro-6H-pyrido[3′,2′:4,5]pyrrolo[1,2-a][1,4]diazepine-2-carboxamide] | 4.3 nM
O=C(Nc1cc(Cc2ccccc2)no1)c1ccc2cc3n(c2n1)CCCNC3=O [Example 95, N-(3-benzyl-1,2-oxazol-5-yl)-6-oxo-7,8,9,10-tetrahydro-6H-pyrido[3′,2′:4,5]pyrrolo[1,2-a][1,4]diazepine-2-carboxamide] | 3.6 nM
Cc1nc(-c2cccc(NC(=O)c3ccc4nc5n(c4c3)CCCNC5=O)c2)cs1 [Example 7, N-[3-(2-methyl-1,3-thiazol-4-yl)phenyl]-1-oxo-2,3,4,5-tetrahydro-1H-[1,4]diazepino[1,2-a]benzimidazole-8-carboxamide] | 1700 nM
CC1(C)CNC(=O)c2cc3ccc(C(=O)Nc4nc5cc(Cl)ccc5[nH]4)nc3n2C1 [Example 50, N-(5-chloro-1H-benzimidazol-2-yl)-9,9-dimethyl-6-oxo-7,8,9,10-tetrahydro-6H-pyrido[3′,2′:4,5]pyrrolo[1,2-a][1,4]diazepine-2-carboxamide] | 55 nM
CC(C)n1c(NC(=O)c2ccc3nc4n(c3c2)C(C)(C)CCNC4=O)nc2ccccc21 [Example 18, 5,5-dimethyl-1-oxo-N-[1-(propan-2-yl)-1H-benzimidazol-2-yl]-2,3,4,5-tetrahydro-1H-[1,4]diazepino[1,2-a]benzimidazole-8-carboxamide] | 4.7 nM
C[C@H]1NC(=O)c2cc3ccc(C(=O)Nc4nc5ccccc5n4CCCN(C)C)nc3n2[C@H]1C (relative stereo) [Example 77, N-{1-[3-(dimethylamino)propyl]-1H-benzimidazol-2-yl}-cis-8,9-dimethyl-6-oxo-6,7,8,9-tetrahydropyrido[3′,2′:4,5]pyrrolo[1,2-a]pyrazine-2-carboxamide] | 29 nM
O=C(Nc1cnc2ccccc2c1)c1ccc2cc3n(c2n1)CCCNC3=O [Example 23, 6-oxo-N-(quinolin-3-yl)-7,8,9,10-tetrahydro-6H-pyrido[3′,2′:4,5]pyrrolo[1,2-a][1,4]diazepine-2-carboxamide] | 9.2 nM
C[C@H]1CNC(=O)c2cc3ccc(C(=O)Nc4cnc5ccccc5c4)nc3n21 [Example 65, (9S)-9-methyl-6-oxo-N-(quinolin-3-yl)-6,7,8,9-tetrahydropyrido[3′,2′:4,5]pyrrolo[1,2-a]pyrazine-2-carboxamide] | 34 nM
CC(C)n1ncc2cc(NC(=O)c3ccc4nc5n(c4c3)CCCNC5=O)cnc21 [Example 11, 1-oxo-N-[1-(propan-2-yl)-1H-pyrazolo[3,4-b]pyridin-5-yl]-2,3,4,5-tetrahydro-1H-[1,4]diazepino[1,2-a]benzimidazole-8-carboxamide] | 870 nM
CC1(C)CNC(=O)c2cc3ccc(C(=O)Nc4cc(C5CC5)on4)nc3n2C1 [Example 90, N-(5-cyclopropyl-1,2-oxazol-3-yl)-9,9-dimethyl-6-oxo-7,8,9,10-tetrahydro-6H-pyrido[3′,2′:4,5]pyrrolo[1,2-a][1,4]diazepine-2-carboxamide] | 43 nM
O=C(Nc1cccc(F)c1)c1ccc2cc3n(c2n1)CCCNC3=O [Example 25, N-(3-fluorophenyl)-6-oxo-7,8,9,10-tetrahydro-6H-pyrido[3′,2′:4,5]pyrrolo[1,2-a][1,4]diazepine-2-carboxamide] | 20 nM
Cn1c(NC(=O)c2ccc3cc4n(c3n2)CC(C)(C)CNC4=O)nc2ccccc21 [Example 52, 9,9-dimethyl-N-(1-methyl-1H-benzimidazol-2-yl)-6-oxo-7,8,9,10-tetrahydro-6H-pyrido[3′,2′:4,5]pyrrolo[1,2-a][1,4]diazepine-2-carboxamide] | 2500 nM
CCn1c(NC(=O)c2ccc3cc4n(c3n2)CCCNC4=O)nc2ccccc21 [Example 55, N-(1-ethyl-1H-benzimidazol-2-yl)-6-oxo-7,8,9,10-tetrahydro-6H-pyrido[3′,2′:4,5]pyrrolo[1,2-a][1,4]diazepine-2-carboxamide] | 140 nM

The remaining compounds from weak to strong by IC50, led by results:

IC50 | SMILES
2000 nM | CC(C)(C)c1cc(NC(=O)c2ccc3nc4n(c3c2)CCCNC4=O)no1 [Example 21, N-(5-tert-butyl-1,2-oxazol-3-yl)-1-oxo-2,3,4,5-tetrahydro-1H-[1,4]diazepino[1,2-a]benzimidazole-8-carboxamide]
502 nM | CC1(C)CNC(=O)c2cc3ccc(C(=O)Nc4cc(-c5ccccc5)on4)nc3n2C1 [Example 92, 9,9-dimethyl-6-oxo-N-(5-phenyl-1,2-oxazol-3-yl)-7,8,9,10-tetrahydro-6H-pyrido[3′,2′:4,5]pyrrolo[1,2-a][1,4]diazepine-2-carboxamide]
92 nM | CN(C)CCCn1c(NC(=O)c2ccc3nc4n(c3c2)CCCNC4=O)nc2ccccc21 [Example 16, N-{1-[3-(dimethylamino)propyl]-1H-benzimidazol-2-yl}-1-oxo-2,3,4,5-tetrahydro-1H-[1,4]diazepino[1,2-a]benzimidazole-8-carboxamide]
56 nM | Cc1nc(-c2cccc(NC(=O)c3ccc4cc5n(c4n3)CCCNC5=O)c2)cs1 [Example 24, N-[3-(2-methyl-1,3-triazol-4-yl)phenyl]-6-oxo-7,8,9,10-tetrahydro-6H-pyrido[3′,2′:4,5]pyrrolo[1,2-a][1,4]diazepine-2-carboxamide]
54 nM | C[C@@H]1CNC(=O)c2cc3ccc(C(=O)Nc4nc5ccccc5n4CCCN(C)C)nc3n21 [Example 76, (9R)-N-{1-[3-(dimethylamino)propyl]-1H-benzimidazol-2-yl}-9-methyl-6-oxo-6,7,8,9-tetrahydropyrido[3′,2′:4,5]pyrrolo[1,2-a]pyrazine-2-carboxamide]
45 nM | CCn1c(NC(=O)c2ccc3nc4n(c3c2)CCCNC4=O)nc2ccc(Cl)nc21 [Example 15, N-(5-chloro-3-ethyl-3H-imidazo[4,5-b]pyridin-2-yl)-1-oxo-2,3,4,5-tetrahydro-1H-[1,4]diazepino[1,2-a]benzimidazole-8-carboxamide]
33 nM | CC(C)n1c(NC(=O)c2ccc3nc4n(c3c2)CCCNC4=O)nc2ccccc21 [Example 4, 1-oxo-N-[1-(propan-2-yl)-1H-benzimidazol-2-yl]-2,3,4,5-tetrahydro-1H-[1,4]diazepino[1,2-a]benzimidazole-8-carboxamide]
27 nM | CC1CCNC(=O)c2cc3ccc(C(=O)Nc4nc5ccccc5n4CCCN(C)C)nc3n21 (stereo not drawn) [Example 70, N-{[3-(dimethylamino)propyl]-1H-benzimidazol-2-yl}-10-methyl-6-oxo-7,8,9,10-tetrahydro-6H-pyrido[3′,2′:4,5]pyrrolo[1,2-a][1,4]diazepine-2-carboxamide]
13 nM | CC1CCNC(=O)c2cc3ccc(C(=O)Nc4cc(Cc5ccccc5)no4)nc3n21 (stereo not drawn) [Example 96, N-(3-benzyl-1,2-oxazol-5-yl)-10-methyl-6-oxo-7,8,9,10-tetrahydro-6H-pyrido[3′,2′:4,5]pyrrolo[1,2-a][1,4]diazepine-2-carboxamide]
5.5 nM | CCn1c(NC(=O)c2ccc3nc4n(c3c2)CCCNC4=O)nc2ccccc21 [Example 3, N-(1-ethyl-1H-benzimidazol-2-yl)-1-oxo-2,3,4,5-tetrahydro-1H-[1,4]diazepino[1,2-a]benzimidazole-8-carboxamide]
1.6 nM | Cn1cc(NC(=O)c2ccc3cc4n(c3n2)CCCNC4=O)nc1C(=O)NC1CCCC1 [Example 104, N-[2-(cyclopentylcarbamoyl)-1-methyl-1H-imidazol-4-yl]-6-oxo-7,8,9,10-tetrahydro-6H-pyrido[3′,2′:4,5]pyrrolo[1,2-a][1,4]diazepine-2-carboxamide]
0.39 nM | CC1CCNC(=O)c2cc3ccc(C(=O)Nc4cnn(Cc5ccccc5)c4)nc3n21 (stereo not drawn) [Example 46, N-(1-benzyl-1H-pyrazol-4-yl)-10-methyl-6-oxo-7,8,9,10-tetrahydro-6H-pyrido[3′,2′:4,5]pyrrolo[1,2-a][1,4]diazepine-2-carboxamide]
0.2 nM | C[C@@H]1CNC(=O)c2cc3ccc(C(=O)Nc4cnn(Cc5ccccc5)c4)nc3n21 [Example 59, (9R)-N-(1-benzyl-1H-pyrazol-4-yl)-9-methyl-6-oxo-6,7,8,9-tetrahydropyrido[3′,2′:4,5]pyrrolo[1,2-a]pyrazine-2-carboxamide]
